Assay results as given in patent publication US12358870B2, “Solid dispersions and pharmaceutical compositions comprising a substituted indane and methods for the preparation and use thereof” (Peloton Therapeutics Inc., priority 2018, dated 2025).

Experiments:
786-O-Hif-Luc cells = experiment: Luciferase Assay; type: cell-based; settings: luciferase activity after about 24 hours
Experimental: A pool of infected cells were then selected against 2 μg/mL of puromycin (P8833, Sigma) for 10 days followed by limited dilution to select single clones.
Each concentration was tested in triplicate. After about 24 hours, luciferase activity was determined using ONE-Glo Luciferase Assay Reagent (E6110, Promega) following the manufacturer's recommended procedure.

[1] = Glass transition temperature (Tg) by mDSC; type: physicochemical; settings: neat compound, Example 1
Experimental: MDSC was performed using a TA Instruments Q2000 differential scanning calorimeter equipped with a TA instruments Refrigerated Cooling System 90. MDSC was used to measure glass transition temperature (Tg) and melting temperature (Tm), if present. The temperature range was adjusted from 0-250° C. with a heating rate of 1.5° C./min. The scanning mode was modulated where the modulation frequency was 60 seconds and modulation amplitude 1° C.
The effect of relative humidity on the Tg was examined for the solid dispersion. The solid dispersion was exposed to humidity levels of 33%, 50% or 75% for 24 hours. Following exposure, the samples were capped in hermetically sealed DSC pans for analysis. […] As shown, the Tg dropped to 71° C. and 51° C. when exposed to 33% and 75% RH, respectively. […] The solid dispersion was packaged in packaging that maintains RH values <33% for long-term storage.

[2] = Suspension stability monitored by SGF/FaSSIF dissolution test; type: physicochemical
Experimental: The performance of each solid dispersion suspension was monitored at 4 and 24 hours after preparation using the SGF/FaSSIF dissolution test as the comparative metric.
The suspension stability dissolution profiles for the solid dispersion formulations held for 4 hours or 24 hours can be found in Tables 8 and 9, respectively. The dissolution tests were dosed at 2.0 mgA/mL in SGF and upon transfer into FaSSIF were reduced to 1.0 mgA/mL. It is expected that the solid dispersion suspensions can be held for up to 4 hours prior to dosing.

VEGF = VEGF ELISA Assay in 786-O cells; type: cell-based; settings: Homo sapiens, 786-0; VEGF concentration in 786-O cell culture medium
Experimental: Each concentration was plated in duplicate. About 20 hours later, medium was removed by suction and each well was supplied with 180 μL of growth medium. About 20 μl freshly-made 10× compound stocks were added to each well. […] The EC50 was calculated by GraphPad Prism using the dose-response-inhibition (four parameter) equation. The cell-seeded plate was then subjected to CellTiter-Glo luminescence cell viability assay (Promega) by adding 50 μL of Celltiter Glo reagent into each well and shaking the plate for 8 minutes at 550 rpm (Thermomixer R, Eppendorf) then the luminescence signal immediately read in a plate reader (3 second delay, 0.5 second/well integration time, Synergy 2 multi Detection Microplate reader).

[3] = Non-sink gastric transfer dissolution test (SGF to FaSSIF); type: physicochemical
Experimental: The dissolution performance of the solid dispersions was tested in a non-sink dissolution test. […] During the test, samples were transferred from SGF [theoretical Cmax=2000 μgA/mL] to FaSSIF [theoretical Cmax=1000 μgA/mL].

[4] = Solubility in acetone and acetone/H2O mixtures, 30 minutes; settings: room temperature
Experimental: The first measurement was conducted at room temperature over 30 minutes with mixing completed by spinning in centrifuge tubes.

[5] = Solubility in acetone/H2O combinations, equilibrated 48 hours; type: physicochemical; settings: 48 hours at room temperature
Description: The second measurement was completed to further evaluate acetone/H2O combinations in 1% H2O increments.

[6] = Solubility and sink factor in dissolution media at pH 2 and 6.8; settings: for Sink Factor (10 mg) / Sink Factor (40 mg): 900 mL media
[7] = Example 6, lipid vehicle capsules
[8] = pH 2.0 (0.01N HCl) w/0.5% Tween 80
[9] = pH 2.0 (0.01N HCl) w/1% Tween 80
[10] = pH 6.8 (50 mM NaH2PO4) w/0.5% CTAB
[11] = pH 6.8 (50 mM NaH2PO4) w/0.5% SLS
[12] = pH 6.8 (50 mM NaH2PO4) w/0.5% Tween 80
[13] = pH 6.8 (50 mM NaH2PO4) w/1% CTAB
[14] = pH 6.8 (50 mM NaH2PO4) w/1% SLS
[15] = pH 6.8 (50 mM NaH2PO4) w/1% Tween 80

CS(=O)(=O)c1ccc(Oc2cc(F)cc(C#N)c2)c2c1[C@H](O)[C@H](F)[C@@H]2F [compound of Formula (I), 3-(((1S,2S,3R)-2,3-difluoro-1-hydroxy-7-(methylsulfonyl)-2,3-dihydro-1H-inden-4-yl)oxy)-5-fluorobenzonitrile]
EC50 (786-O-Hif-Luc cells): < 50 nM | glass transition temperature (Tg) [1]: 79.9 °C | Cmax GB ([2]; 10 mgA/mL suspension in 1 wt. % 1:1 methyl-cellulose:Tween 80 held 4 hours): 18.3 μgA/mL | Cmax GB ([2]; 10 mgA/mL suspension in 1 wt. % 1:1 methyl-cellulose:Tween 80 held 24 hours): 35.8 μgA/mL | AUC Enhancement ([2]; suspension held 4 hours): 1.0 | AUC FaSSIF ([2]; suspension held 4 hours): 2600 μgA/mL*min | Cmax FaSSIF ([2]; suspension held 4 hours): 15.5 μgA/mL | AUC Enhancement ([2]; suspension held 24 hours): 1.0 | AUC FaSSIF ([2]; suspension held 24 hours): 5600 μgA/mL*min | Cmax FaSSIF ([2]; suspension held 24 hours): 33.0 μgA/mL | EC50 (VEGF): < 50 nM | AUC Enhancement ([3]; Example 2, AUC solid dispersion/AUC crystalline compound of Formula (I)): 1 | Cmax GB ([3]; Example 2, SGF, 30 minutes): 12 μgA/mL | Cmax FaSSIF ([3]; Example 2, after transfer to FaSSIF): 16 μgA/mL | AUC FaSSIF ([3]; Example 2, post gastric transfer): 2600 μgA/mL*min | Cmax GB ([3]; Example 6, capsules, 5 wt. % compound in lipid vehicle): 14 μgA/mL | AUC FaSSIF [3, 7]: 3021 μgA/mL*min | Cmax FaSSIF [3, 7]: 19 μgA/mL | AUC Enhancement ([3]; Example 6, versus bulk crystalline drug): 1.0 | solubility ([4]; 87.5/12.5% Acetone/H2O): 5.8 wt. % | solubility ([4]; 90/10% Acetone/H2O): 7.1 wt. % | solubility ([4]; 92.5/7.5% Acetone/H2O): 6.7 wt. % | solubility ([4]; 95/5% Acetone/H2O): 7.5 wt. % | solubility ([4]; 97.5/2.5% Acetone/H2O): 7.3 wt. % | solubility ([4]; 100% Acetone): 6.2 wt. % | solubility ([5]; 95/5% Acetone/H2O): 6.6 wt. % | solubility ([5]; 96/4% Acetone/H2O): 6.3 wt. % | solubility ([5]; 97/3% Acetone/H2O): 6.7 wt. % | solubility ([5]; 98/2% Acetone/H2O): 6.6 wt. % | solubility ([5]; 99/1% Acetone/H2O): 6.0 wt. % | solubility ([5]; 100% Acetone): 6.0 wt. % | solubility ([6]; pH 2): 100 µg/mL | Sink Factor (10 mg) ([6]; pH 2.0 (0.01N HCl) w/0.5% CTAB): 5.4 | Sink Factor (40 mg) ([6]; pH 2.0 (0.01N HCl) w/0.5% CTAB): 1.4 | Sink Factor (10 mg) ([6]; pH 2.0 (0.01N HCl) w/0.5% SLS): 3.6 | Sink Factor (40 mg) ([6]; pH 2.0 (0.01N HCl) w/0.5% SLS): 0.9 | Sink Factor (10 mg) [6, 8]: 1.8 | Sink Factor (40 mg) [6, 8]: 0.5 | Sink Factor (10 mg) ([6]; pH 2.0 (0.01N HCl) w/1% CTAB): 9 | Sink Factor (40 mg) ([6]; pH 2.0 (0.01N HCl) w/1% CTAB): 2.3 | Sink Factor (10 mg) ([6]; pH 2.0 (0.01N HCl) w/1% SLS): 6.3 | Sink Factor (40 mg) ([6]; pH 2.0 (0.01N HCl) w/1% SLS): 1.6 | Sink Factor (10 mg) [6, 9]: 1.8 | Sink Factor (40 mg) [6, 9]: 0.5 | Sink Factor (10 mg) ([6]; pH 2.0 (0.01N HCl)): 0.9 | Sink Factor (40 mg) ([6]; pH 2.0 (0.01N HCl)): 0.2 | solubility ([6]; pH 2, aqueous with cosolvent or surfactant or cyclodextrin, thermodynamic from solid, Solubility): 60 µg/mL | solubility ([6]; pH 2, aqueous with cosolvent or surfactant or cyclodextrin, thermodynamic from solid, Solubility, pH 2.0 (0.01N HCl) w/0.5% SLS): 40 µg/mL | solubility ([6]; pH 2, aqueous with cosolvent or surfactant or cyclodextrin, thermodynamic from solid, Solubility, pH 2.0 (0.01N HCl) w/0.5% Tween 80): 20 µg/mL | solubility ([6]; pH 2, aqueous with cosolvent or surfactant or cyclodextrin, thermodynamic from solid, Solubility, pH 2.0 (0.01N HCl) w/1% SLS): 70 µg/mL | solubility ([6]; pH 2, aqueous with cosolvent or surfactant or cyclodextrin, thermodynamic from solid, Solubility, pH 2.0 (0.01N HCl) w/1% Tween 80): 20 µg/mL | solubility ([6]; pH 2, simulated gastric fluid, thermodynamic from solid, Solubility, pH 2.0 (0.01N HCl)): 10 µg/mL | Sink Factor (10 mg) [6, 10]: 6.3 | Sink Factor (40 mg) [6, 10]: 1.6 | Sink Factor (10 mg) [6, 11]: 3.6 | Sink Factor (40 mg) [6, 11]: 0.9 | Sink Factor (10 mg) [6, 12]: 1.8 | Sink Factor (40 mg) [6, 12]: 0.5 | Sink Factor (10 mg) [6, 13]: 9.9 | Sink Factor (40 mg) [6, 13]: 2.5 | Sink Factor (10 mg) [6, 14]: 6.3 | Sink Factor (40 mg) [6, 14]: 1.6 | Sink Factor (10 mg) [6, 15]: 1.8 | Sink Factor (40 mg) [6, 15]: 0.5 | Sink Factor (10 mg) ([6]; pH 6.8 (50 mM NaH2PO4)): 0.9 | Sink Factor (40 mg) ([6]; pH 6.8 (50 mM NaH2PO4)): 0.2 | solubility ([6]; pH 6.8, aqueous buffer, thermodynamic from solid, Solubility, pH 6.8 (50 mM NaH2PO4)): 10 µg/mL | solubility ([6]; pH 6.8, aqueous with cosolvent or surfactant or cyclodextrin, thermodynamic from solid, Solubility, pH 6.8 (50 mM NaH2PO4) w/0.5% CTAB): 70 µg/mL | solubility ([6]; pH 6.8, aqueous with cosolvent or surfactant or cyclodextrin, thermodynamic from solid, Solubility, pH 6.8 (50 mM NaH2PO4) w/0.5% SLS): 40 µg/mL | solubility ([6]; pH 6.8, aqueous with cosolvent or surfactant or cyclodextrin, thermodynamic from solid, Solubility, pH 6.8 (50 mM NaH2PO4) w/0.5% Tween 80): 20 µg/mL | solubility ([6]; pH 6.8, aqueous with cosolvent or surfactant or cyclodextrin, thermodynamic from solid, Solubility, pH 6.8 (50 mM NaH2PO4) w/1% CTAB): 110 µg/mL | solubility ([6]; pH 6.8, aqueous with cosolvent or surfactant or cyclodextrin, thermodynamic from solid, Solubility, pH 6.8 (50 mM NaH2PO4) w/1% SLS): 70 µg/mL | solubility ([6]; pH 6.8, aqueous with cosolvent or surfactant or cyclodextrin, thermodynamic from solid, Solubility, pH 6.8 (50 mM NaH2PO4) w/1% Tween 80): 20 µg/mL
